Laboratory results as given in patent publication US20210378193A1, “HAPLOID EMBRYOGENESIS” (STICHTING WAGENINGEN RESEARCH, priority 2013, published 2021).

Tested on: B. napus DH 12075 microspore-derived embryos
Experiment: conversion of microspore-derived embryos to seedlings (roots, shoots)
Format: cell-based, Brassica napus
Conditions: embryos transferred to regeneration medium
Source text: All of the embryos that produced roots, except for the short embryo type, initiated root development from the root meristem, as evidenced by the development of roots within a few days of growth on germination medium.
In FIG. 12B, different types of embryos derived from different populations of microspores/pollen treated with DMSO (control) or different concentrations of HDACi were transferred to a regeneration medium and evaluated for their ability to produce shoots (a measure of conversion).

## O=C(CCCCCCC(=O)Nc1ccccc1)NO [SAHA, suberoylanilide hydroxamic acid]
  germination (ability to produce shoots, a measure of conversion) compared to the control: improved
